Source: patent US7598393B2 (dated 2009)
Structures can show the parent of a compound that is named as a salt.

melting point [°C]	Structure (SMILES)
107	CC(C)S(=O)(=O)c1ccc2c(c1)nc(CC1CC1)n2CC1CC1
137	CC(C)S(=O)(=O)c1ccc2c(c1)nc(CC1CCCC1)n2CC1CC1
122	CC(C)S(=O)(=O)c1ccc2c(c1)nc(CC1(C)CCCC1)n2CC1CC1
173	CC(C)(C)Cc1nc2cc(S(=O)(=O)c3ccccc3)ccc2n1CC1CC1
142	CCS(=O)(=O)c1ccc2c(c1)nc(CC(C)(C)C)n2CC1CCCO1 (stereo not drawn)
189	CC(C)S(=O)(=O)c1ccc2c(c1)nc(CC(C)(C)C)n2CC1(O)CCOCC1
172	CCS(=O)(=O)c1ccc2c(c1)nc(CC(C)(C)C)n2CC1(O)CCCC1
191	CCS(=O)(=O)c1cnc2c(c1)nc(CC(C)(C)C)n2CC1CCOCC1
179	CC(C)S(=O)(=O)c1cnc2c(c1)nc(CC(C)(C)C)n2CC1(O)CCOCC1
119	CC(C)S(=O)(=O)c1cnc2c(c1)nc(CC(C)(C)C)n2CCN(C)C
201	CC(C)S(=O)(=O)c1cnc2c(c1)nc(CC(C)(C)C)n2CC1CCOCC1
133	CCS(=O)(=O)c1ccc2c(c1)nc(CC(C)(C)C)n2CCOC(F)(F)F
151	CC(C)S(=O)(=O)c1ccc2c(c1)nc(CC(C)(C)C)n2CCN1CCOCC1
116	CC(C)S(=O)(=O)c1ccc2c(c1)nc(CC(C)(C)C)n2CCN(C)C
217	CC(C)(C)Cc1nc2cc(S(C)(=O)=O)ccc2n1CC1CC1 (as salt: hydrochloride)
